What was measured:
[1] = test system: Hela nucleus extract containing a mixture of HDAC isoforms; experiment: HDAC enzyme inhibitory assay with Hela nucleus extract; assay type: biochemical; conditions: 1 µM, mean of three experiments
Description: The HDAC enzyme inhibitory activities of synthesised compounds were investigated by utilising Hela nucleus extract containing a mixture of HDAC isoforms. Percentage inhibitory rate was used to determine the activity of tested compounds (Tables 1 and 2). The Fa series compounds were firstly synthesised for the activity screening. […] To investigate whether aromatic linker could improve the inhibitory activities, structural modifications were performed on current molecules.

[2] = target: HDAC1 (Homo sapiens, UniProt Q13547); experiment: HDAC isoform inhibitory assay, HDAC1
Description: (§1) All HDAC enzymes were purchased from BPS Bioscience. In short, 60 μL of recombinant HDAC enzyme solution was mixed with various concentrations of test compound (40 μL), and then incubated at 37 °C for 30 min. The reaction was terminated by adding 100 μL of imaging agent containing trypsin and trichostatin A (TSA). After standing for 20 min, the fluorescence intensity was measured at the excitation and emission wavelengths of 360 and 460 nm with a microplate reader. The inhibition rate was calculated from the fluorescence intensity readings of the test wells relative to the control wells, and the IC50 curve and value were determined by GraphPad Prism 6.0 software.

[3] = target: HDAC2 (Homo sapiens, UniProt Q92769); experiment: HDAC isoform inhibitory assay, HDAC2
Description: as §1

[4] = target: HDAC3 (Homo sapiens, UniProt O15379); experiment: HDAC isoform inhibitory assay, HDAC3
Description: as §1

[5] = target: T1, HDAC6 (Homo sapiens, UniProt Q9UBN7); experiment: HDAC isoform inhibitory assay, HDAC6
T1 sequence (Q9UBN7 1-1215): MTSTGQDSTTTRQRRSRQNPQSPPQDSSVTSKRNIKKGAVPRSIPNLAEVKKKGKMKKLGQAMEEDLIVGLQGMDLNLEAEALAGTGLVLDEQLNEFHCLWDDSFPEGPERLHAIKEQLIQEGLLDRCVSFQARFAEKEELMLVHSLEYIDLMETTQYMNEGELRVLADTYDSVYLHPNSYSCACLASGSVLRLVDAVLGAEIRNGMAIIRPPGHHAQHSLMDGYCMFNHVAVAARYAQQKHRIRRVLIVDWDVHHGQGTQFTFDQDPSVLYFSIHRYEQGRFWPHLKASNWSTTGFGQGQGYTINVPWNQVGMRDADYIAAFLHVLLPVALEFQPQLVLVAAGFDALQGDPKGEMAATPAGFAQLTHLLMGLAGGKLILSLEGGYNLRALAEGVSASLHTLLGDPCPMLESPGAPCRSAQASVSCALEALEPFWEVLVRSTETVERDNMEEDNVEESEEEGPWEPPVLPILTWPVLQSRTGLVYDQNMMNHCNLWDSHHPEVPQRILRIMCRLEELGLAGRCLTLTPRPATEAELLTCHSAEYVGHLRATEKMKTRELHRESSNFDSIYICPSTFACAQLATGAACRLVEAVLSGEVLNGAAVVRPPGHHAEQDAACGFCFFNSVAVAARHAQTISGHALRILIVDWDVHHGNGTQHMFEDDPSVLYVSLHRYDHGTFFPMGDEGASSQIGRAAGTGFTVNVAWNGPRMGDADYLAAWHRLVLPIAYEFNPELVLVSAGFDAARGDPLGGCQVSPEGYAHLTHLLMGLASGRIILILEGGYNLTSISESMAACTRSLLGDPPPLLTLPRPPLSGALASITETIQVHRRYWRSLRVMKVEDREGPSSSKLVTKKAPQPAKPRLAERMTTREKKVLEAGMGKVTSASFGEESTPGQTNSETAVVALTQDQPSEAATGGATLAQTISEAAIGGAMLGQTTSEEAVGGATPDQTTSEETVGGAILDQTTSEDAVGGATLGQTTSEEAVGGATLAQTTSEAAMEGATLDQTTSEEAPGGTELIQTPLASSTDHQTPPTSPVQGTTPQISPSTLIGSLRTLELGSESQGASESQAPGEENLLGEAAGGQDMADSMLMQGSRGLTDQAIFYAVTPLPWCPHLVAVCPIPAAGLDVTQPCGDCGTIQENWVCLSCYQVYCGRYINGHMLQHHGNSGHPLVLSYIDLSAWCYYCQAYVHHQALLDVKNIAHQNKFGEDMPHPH
Description: as §1

[6] = target: T2, HDAC8 (Homo sapiens, UniProt Q9BY41); experiment: HDAC isoform inhibitory assay, HDAC8
T2 sequence (Q9BY41 1-377): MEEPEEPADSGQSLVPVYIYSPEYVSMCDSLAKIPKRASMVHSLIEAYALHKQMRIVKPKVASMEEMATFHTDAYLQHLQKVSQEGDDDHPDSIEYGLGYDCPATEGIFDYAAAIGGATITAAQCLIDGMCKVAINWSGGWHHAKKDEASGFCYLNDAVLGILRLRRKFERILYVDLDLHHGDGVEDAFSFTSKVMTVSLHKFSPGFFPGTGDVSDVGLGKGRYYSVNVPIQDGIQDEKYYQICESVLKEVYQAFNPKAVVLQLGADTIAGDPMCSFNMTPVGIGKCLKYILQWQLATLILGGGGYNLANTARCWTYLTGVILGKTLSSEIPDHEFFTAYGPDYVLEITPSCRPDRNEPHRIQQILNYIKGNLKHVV
Description: as §1

[7] = test system: MCF-7 cells; experiment: Cell cycle assay (PI, flow cytometry); conditions: 24 h
Description: After staining, the cell cycle distribution was determined by flow cytometry within 24 h.

[8] = test system: U937 cells; experiment: MTT antiproliferative assay, U937 cells; conditions: Homo sapiens
[9] = test system: K562 cells; experiment: MTT antiproliferative assay, K562 cells; conditions: Homo sapiens, K562, 48 h, read-out: K562 antiproliferative IC50
[10] = test system: U266 cells; experiment: MTT antiproliferative assay, U266 cells; conditions: Homo sapiens, U-266, 48 h, read-out: U266 antiproliferative IC50
[11] = test system: MCF-7 cells; experiment: MTT antiproliferative assay, MCF-7 cells; conditions: Homo sapiens, MCF7, 48 h, read-out: MCF-7 antiproliferative IC50
[12] = test system: HEPG2 cells; experiment: MTT antiproliferative assay, HEPG2 cells; conditions: Homo sapiens, HepG2, 48 h, read-out: HEPG2 antiproliferative IC50
[13] = test system: MCF-7 cells; experiment: Cell apoptosis assay (Annexin V-FITC/PI, flow cytometry); conditions: 24 h, control 9.16%
Description: After incubating for 15 min, add 10 µL of PI to each sample and mix gently, and incubate for 5 min at 2–8 °C under dark conditions, and detect with a flow cytometer.

Sequence of HDAC1 (Q13547 whole entry, canonical isoform): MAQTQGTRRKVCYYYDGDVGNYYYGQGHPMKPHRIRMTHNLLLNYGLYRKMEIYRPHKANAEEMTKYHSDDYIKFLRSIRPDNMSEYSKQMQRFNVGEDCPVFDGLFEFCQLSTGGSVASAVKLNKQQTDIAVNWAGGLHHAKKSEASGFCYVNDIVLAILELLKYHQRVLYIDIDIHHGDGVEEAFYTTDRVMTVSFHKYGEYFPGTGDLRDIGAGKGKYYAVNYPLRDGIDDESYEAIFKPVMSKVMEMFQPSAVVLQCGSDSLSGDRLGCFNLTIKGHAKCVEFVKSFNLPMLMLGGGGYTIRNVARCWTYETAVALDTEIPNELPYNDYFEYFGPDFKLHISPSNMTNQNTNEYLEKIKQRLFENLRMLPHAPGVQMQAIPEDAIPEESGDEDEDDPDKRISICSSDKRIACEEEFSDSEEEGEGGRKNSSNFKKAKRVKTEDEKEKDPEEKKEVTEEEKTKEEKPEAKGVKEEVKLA
Sequence of HDAC2 (Q92769 whole entry, canonical isoform): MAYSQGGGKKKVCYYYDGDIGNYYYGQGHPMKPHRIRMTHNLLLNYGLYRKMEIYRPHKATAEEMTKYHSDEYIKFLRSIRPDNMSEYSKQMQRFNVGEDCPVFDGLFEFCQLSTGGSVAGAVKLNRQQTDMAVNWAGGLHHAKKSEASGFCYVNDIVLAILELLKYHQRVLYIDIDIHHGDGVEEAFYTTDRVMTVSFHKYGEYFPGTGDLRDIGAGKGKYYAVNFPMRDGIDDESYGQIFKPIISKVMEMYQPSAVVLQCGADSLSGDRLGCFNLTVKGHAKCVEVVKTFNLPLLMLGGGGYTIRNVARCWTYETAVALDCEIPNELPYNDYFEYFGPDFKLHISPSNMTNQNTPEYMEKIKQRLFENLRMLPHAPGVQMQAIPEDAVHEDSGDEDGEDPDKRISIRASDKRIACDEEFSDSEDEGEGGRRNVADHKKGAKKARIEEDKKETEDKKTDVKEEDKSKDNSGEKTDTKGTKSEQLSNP
Sequence of HDAC3 (O15379 whole entry, canonical isoform): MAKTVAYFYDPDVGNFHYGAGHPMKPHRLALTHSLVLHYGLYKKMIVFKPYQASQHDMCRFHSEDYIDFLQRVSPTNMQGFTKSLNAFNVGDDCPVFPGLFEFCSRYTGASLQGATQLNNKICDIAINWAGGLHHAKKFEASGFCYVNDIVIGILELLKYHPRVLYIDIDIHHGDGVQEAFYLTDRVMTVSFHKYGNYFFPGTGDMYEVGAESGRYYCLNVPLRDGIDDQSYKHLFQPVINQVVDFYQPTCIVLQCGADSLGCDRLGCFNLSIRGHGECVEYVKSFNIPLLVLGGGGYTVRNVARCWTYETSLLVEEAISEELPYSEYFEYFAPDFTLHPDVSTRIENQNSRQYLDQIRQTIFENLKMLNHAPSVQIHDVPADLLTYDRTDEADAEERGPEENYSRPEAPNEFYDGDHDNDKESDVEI
Sequence of HDAC3 (Q9Y618 395-489 partner limits assumed): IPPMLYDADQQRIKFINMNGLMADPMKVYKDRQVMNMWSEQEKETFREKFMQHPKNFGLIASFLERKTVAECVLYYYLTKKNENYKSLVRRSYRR

Compound: O=C(NO)c1ccc(CNC(=O)c2ccc(-c3cc4c(cc3NC(=O)c3ccccc3F)OCO4)cc2)cc1 [Fb-4, 4-({4-[6–(2-Fluoro-benzoylamino)-benzo[1,3]dioxol-5-yl]-benzoylamino}-methyl)-N-Hydroxy-benzamide]
- HDACs percentage inhibitory rate [1]: 66.54 ± 1.47%
- IC50 [2]: 12.1 ± 2.5 nM
- IC50 [3]: 21.5 ± 4.5 nM
- IC50 [4]: 11 ± 2.8 nM
- IC50 [5]: 8.6 ± 1.3 nM
- IC50 [6]: 304 ± 32.6 nM
- cell percentage at G2/M phase ([7]; 1 µM): 17.46%
- cell percentage at G2/M phase ([7]; 3 µM): 24.81%
- cell percentage at G2/M phase ([7]; 9 µM): 41.71%
- IC50 ([8]; U-937, 48 h, read-out: U937 antiproliferative IC50): 340 ± 60 nM
- inhibition at 1 µM ([8]; U-937, read-out: U937 percentage inhibitory rate, 1 µM, U937 cells, MTT, mean of three experiments): 95.9 ± 1.09%
- IC50 [9]: 870 ± 10 nM
- IC50 [10]: 90 ± 10 nM
- IC50 [11]: 320 ± 40 nM
- IC50 [12]: 17400 ± 630 nM
- percentage of apoptotic cells ([13]; 1 µM): 16.99%
- percentage of apoptotic cells ([13]; 3 µM): 20.07%
- percentage of apoptotic cells ([13]; 9 µM): 21.19%
